Laboratory results taken from PMC9099256, “Toward Novel [^18F]Fluorine-Labeled Radiotracers for the Imaging of α-Synuclein Fibrils” (Frontiers in Aging Neuroscience, 2022).
Values joined by “and” are separate entries in the source; they are usually repeats but may differ in a detail not shown here. Identical values can stand only once.

How the values were obtained:
[1] = biological target: T1, Aβ1–42 fibrils (Homo sapiens, UniProt P05067); assay: Competition binding assay against [3H]DCVJ, Aβ1–42 fibrils; settings: for Ki: vs [3H]DCVJ 10 nM, fibrils 125 nM
T1 construct: 1 mg of β-amyloid1−42 peptide was dissolved in 50 μL DMSO
T1 sequence (P05067 672-713): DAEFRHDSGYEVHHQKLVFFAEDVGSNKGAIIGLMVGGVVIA
Method: (§1) Fixed concentrations (125 nM) of Aβ1–42, tau aggregates, and [^3H]DCVJ (10 and 20 nM, respectively) were used with different concentrations of cold d2, d4, d6, and d8 from 1 to 1,000 nM. The experiment was performed in quadruplicates for each concentration. Further procedures followed the same already described in section “Competition Binding Assays for α-Syn Fibrils.”
(§2) The binding affinity of [^18F]d2, [^18F]d4, [^18F]d6, and [^18F]d8 to human recombinant α-syn, Aβ, and tau fibrils was assayed in a competition binding assay with non-radioactive ligands d2, d4, d6, and d8 against tritiated 9-(2,2-dicyanovinyl)julolidine (DCVJ) (Figure 3 and Supplementary Material). […] Although being a pan tracer makes DCVJ a less suitable tracer for the in vivo imaging of any of the protein aggregates, it makes it, however, a useful tool for evaluating the usefulness of other ligands as tracers for various proteinopathies in competitive binding experiments, as well as for scanning the fibril-binding sites in a set of in silico blind dockings.
1 mg of β-amyloid1−42 peptide was dissolved in 50 μL DMSO. 925 μL of Milli-Q water was added to the above. Then 25 μL of 1M Tris HCl, pH 7.4 was added to bring the final peptide concentration to 1 mg/mL. The dissolved peptide was then incubated for 30 h at 37°C with shaking at 900 rpm. To determine the concentration of fibrils, the fibril reaction mixer was centrifuged at 12000 g for 5 min and the fibril pellet was washed three times in 20 mM Tris-HCl pH 7.4 to separate fibrils from monomer. Supernatant from all centrifugation steps were combined and the concentration of monomer in the supernatant was determined in a BCA assay, alongside a BSA standard curve. The concentration of the fibrils formed was determined by subtracting the amount of β-amyloid1−42 monomer in the supernatant from initial amount used for fibrillation.

[2] = biological target: tau fibrils (Homo sapiens, UniProt P10636); assay: Competition binding assay against [3H]DCVJ, tau fibrils; settings: for Ki: vs [3H]DCVJ 20 nM, fibrils 125 nM
tau fibrils, sequence (P10636 2-758): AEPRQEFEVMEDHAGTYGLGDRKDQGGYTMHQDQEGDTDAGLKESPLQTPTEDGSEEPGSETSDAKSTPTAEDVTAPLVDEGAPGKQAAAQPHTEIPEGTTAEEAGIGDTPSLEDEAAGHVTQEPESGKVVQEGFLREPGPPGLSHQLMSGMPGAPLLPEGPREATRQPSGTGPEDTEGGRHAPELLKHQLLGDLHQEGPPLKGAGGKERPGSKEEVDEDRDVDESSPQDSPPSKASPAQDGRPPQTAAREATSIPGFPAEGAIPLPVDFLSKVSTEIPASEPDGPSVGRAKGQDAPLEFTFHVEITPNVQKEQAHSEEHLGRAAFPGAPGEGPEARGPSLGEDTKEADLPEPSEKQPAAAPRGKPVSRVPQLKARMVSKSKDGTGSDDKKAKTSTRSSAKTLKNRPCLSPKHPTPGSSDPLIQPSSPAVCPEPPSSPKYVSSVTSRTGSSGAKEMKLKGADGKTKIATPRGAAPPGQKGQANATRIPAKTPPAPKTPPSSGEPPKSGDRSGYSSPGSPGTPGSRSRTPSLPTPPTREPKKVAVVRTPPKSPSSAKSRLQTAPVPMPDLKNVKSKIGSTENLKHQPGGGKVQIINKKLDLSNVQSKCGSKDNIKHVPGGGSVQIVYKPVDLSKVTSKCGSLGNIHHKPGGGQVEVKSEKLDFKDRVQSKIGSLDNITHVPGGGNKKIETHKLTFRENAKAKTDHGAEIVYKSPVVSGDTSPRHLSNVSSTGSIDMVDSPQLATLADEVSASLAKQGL
Method: as §1, §2
Recombinant tau monomer was dissolved at 300 µg/mL concentration in 20 mM Tris HCl pH 8.0, 100 mM NaCl, 25 μM low molecular weight heparin, and 0.5 mM DTT. The dissolved peptide was incubated at 37°C for 48 hours with shaking at 900 rpm. To determine the concentration of fibrils, the fibril reaction mixer was centrifuged at 12000 g for 5 min and the fibril pellet was washed 3 times in 20 mM Tris-HCl pH 7.4 to separate fibrils from monomer. Supernatants from all centrifugation steps were combined and the concentration of monomer in the supernatant was determined using BCA assay, alongside a BSA standard curve. The concentration of the fibrils formed was determined by subtracting the amount of tau monomer in the supernatant from initial amount used for fibrillation.

[3] = biological target: T2, human recombinant α-syn fibrils (Homo sapiens, UniProt P37840); assay: Competition binding assay against [3H]DCVJ, α-syn fibrils; settings: for selectivity over Aβ and tau aggregates: abstract; for Ki: non-radioactive ligand vs [3H]DCVJ 10 nM, α-syn fibrils 125 nM, 2 h 37°C
T2 construct: made in house; host or cells: E. coli BL21(DE3), plasmid pET11-D
Method: The competitor reaction was diluted with 20 mM Tris-HCl, pH 7.4 to a final volume of 200 μL per well. After incubation for 2 h at 37°C, the binding mixtures were filtered through a Perkin Elmer GF/B glass filter via a TOMTEC cell harvester and immediately washed three times with 1 mL of deionized water. Filters containing the bound ligands were dried and mixed with 3 mL of Betaplate scint solution (PerkinElmer Life Sciences) and incubated for 2 h before counting in a Wallac 1450 MicroBeta TriLux Liquid Scintillation Counter (PerkinElmer Life Sciences). For the determination of the inhibition constants, data were analyzed using GraphPad Prism software (version 7.0) to obtain IC50 values by fitting the data to the equation Y = bottom + (top - bottom)/(1 + 10(x - log IC50). Ki values were calculated from IC50 values using the equation Ki = IC50/(1 + [radioligand]/Kd).
as §2
Purified recombinant α-syn monomer (10 mg/mL) was incubated in PBS, pH 7.4, at 37 °C by shaking at 900 rpm in an Eppendorf Thermomixer for up to 84 hours. To determine the concentration of fibrils, the fibril reaction mixer was centrifuged at 12000 g for 5 min and the fibril pellet was washed 3 times with 20 mM Tris-HCl pH 7.4 to separate fibrils from monomer. Supernatant from all the centrifugation steps were combined and the concentration of monomer in the supernatant was determined using SDS-PAGE. The concentration of the fibrils formed was determined by subtracting the mount of α-syn monomer in the supernatant from initial amount use for fibrillation process.

[4] = In vitro plasma protein binding (ultrafiltration); assay type: in vitro ADME, human; settings: for fp relative to benzodioxole counterpart: [18F]d8 vs [18F]d6, [18F]d4 vs [18F]d2; for fp (free plasma fraction): human plasma, ultrafiltration, n = 3
Method: To estimate the free fraction (fp) of the radioligands in the plasma, an ultrafiltration method was used. Approximately 1 MBq of [^18F]d2, [^18F]d4, [^18F]d6, and [^18F]d8 were added to 450 μL of Seronorm Human plasma (Invicon GmbH, Munich, Germany), and the mixture was incubated for 10 min. After incubation, 150 μL of plasma was transferred into 3 ultrafiltration tubes (Centrifree YM-30; cutoff 30,000 MW; Millipore) and centrifuged at 8,000 rpm for 10 min. Equal aliquots of the ultrafiltrate (Cfree), and of the plasma (Ctotal) were counted for their radioactivity with a γ-counter. The fp of the radioligands was calculated as fp = Cfree/Ctotal (n = 3).

[5] = Biodistribution experiments; assay type: in vivo, healthy C57BL/6J mice; settings: for brain uptake at 5 min p.i. / brain uptake at 60 min p.i.: i.v.
Method: The ethanol solutions containing the tracers [^18F]d2, [^18F]d4, [^18F]d6, and [^18F]d8 were diluted with DMSO, Tween-20, and saline added consecutively to achieve a final concentration of 2.4, 2.4, and 0.4% of ethanol, DMSO, and Tween-20, respectively. The pH was adjusted with 0.05 N aqueous sodium hydroxide solution. 1.5–2.5 MBq of [^18F]d2, [^18F]d4, [^18F]d6, and [^18F]d8 prepared in the above solvent mixture were administered to the mice via the caudal vein under isoflurane anesthesia. The mice were sacrificed at 5 and 60 min p.i. The following organs/tissues were extracted: blood, heart, lung, liver, stomach, pancreas, colon, small intestine, kidney, muscle, bone, tail, and the brain. The radioactivity in the pre-weighed tissue samples was determined using a γ-counter. Data are expressed as a percent of the injected dose per gram tissue (% ID/g; mean ± sd, n = 3).

[6] = Log D determination (octanol/PBS pH 7.4); assay type: physicochemical; settings: for reduction of log D versus benzodioxole counterpart: [18F]d4 vs [18F]d2, [18F]d8 vs [18F]d6; for logD: octanol/PBS pH 7.4, n = 3
Method: To a solution of [^18F]d2, [^18F]d4, [^18F]d6, and [^18F]d8 (0.5–1.0 MBq) in 0.5 mL octanol, 0.5 mL PBS (pH 7.4) was added in a 1.5 mL Eppendorf vial. The vials were vigorously vortexed for 10 min. To achieve efficient phase separation, the vials were centrifuged for 10 min at 13,000 rpm in a Heraeus Biofuge 13 centrifuge. Aliquots (100 μL) of the aqueous and the octanol phase were collected carefully and the amount radioactivity in the respective samples was quantified using a γ-counter. The log octanol/PBS values were calculated from the means of n = 3 separate determinations.

[7] = Metabolite experiments (brain and plasma, 20 min p.i.); assay type: in vivo, healthy mice
Method: Tracers [^18F]d6 and [^18F]d8 were prepared as already described above in section “Biodistribution Experiments.” About 80–120 MBq of the tracers were injected via the caudal vein in the mice (n = 3 per tracer). At 20 min p.i., the animals were euthanized, and the needed tissues were extracted and placed on dry ice. To separate plasma from the blood cells, the blood samples were first centrifuged 13,000 rpm for 10 min, then acetonitrile acidified with 1% trifluoroacetic acid (TFA) (10 min, 4°C) was added to the centrifugate to precipitate the plasma proteins, followed by another centrifugation as already described, and ultrafiltration using ultrafiltration tubes (Centrifree YM-30; cutoff 30,000 MW; Millipore). A 10 μL of 1 M DMSO solution of the cold references was added to the centrifugate which was subsequently analyzed by RP-HPLC. The brain was frozen in liquid nitrogen and homogenized with a ball mill. A mixture of acetonitrile and DMSO (5:1) with 1% TFA containing the cold references of the tracers was added to the homogenate and mixed. The suspension was centrifuged. The supernatant was then filtered using ultrafiltration tubes as already described, the resulting filtrate was subsequently analyzed by RP-HPLC.

[8] = In vivo PET-MRI dynamic scan with biodistribution; set-up: species or system healthy C57BL/6J mice; settings: healthy mice, i.v., biodistribution after PET dynamic scan
Method: For PET imaging [^18F]d6 and [^18F]d8 were prepared as described in section “Biodistribution Experiments” and ∼11 MBq was injected via the caudal vein in the mice (n = 3 for each tracer). PET was recorded on nanoScan PET/MRI (Mediso Medical Imaging System) under isoflurane anesthesia. PET was continuously recorded in list mode for 120 min and consisted of 36 frames (1 × 60 s; 30 × 10 s; 1 × 600 s; 1 × 900 s; and 3 × 1800 s) while anesthesia was maintained. Data were reconstructed using Nucline nanoScan 3.00.021.0000 software, employing a three-dimensional ordered subset expectation maximum (OSEM3D) algorithm without a scatter and attenuation correction. Tissue time–activity curves (TACs) were obtained by projecting the defined ROI onto all frames of the dynamic PET scans. At 2 h after the PET dynamic scan, the mice were promptly euthanized, the rest of the protocol followed as already described in section “Biodistribution Experiments.”

Compound	fp (free plasma fraction) [4] [%]	brain uptake at 5 min p.i. ([5]; healthy mice, 5 min p.i.) [%ID/g]	brain uptake at 60 min p.i. ([5]; healthy mice)	logD [6]	Ki [1] [nM]	Ki [2] [nM]	selectivity over Aβ and tau aggregates [3] [fold]	Ki [3] [nM]	also measured
N#CC(C#N)=Cc1cc2c3c(c1)CCCN3CCC2 [DCVJ, 9-(2,2-dicyanovinyl)julolidine, reference compound]									Kd ([1]; radioligand/pan-amyloid ligand, read-out: Kd for Aβ): 8.9 nM; Kd ([2]; radioligand/pan-amyloid ligand): 15.6 nM; Kd ([3]; radioligand/pan-amyloid ligand): 4.42 nM
COc1ccc(-c2csc(-c3nc(-c4cnc5c(c4)OCO5)cs3)n2)cc1[18F] [[^18F]d4, 6-(4′-(3-[^18F]fluoro-4-methoxyphenyl)-[2,2′-bithiazol]-4-yl)-[1,3]dioxolo[4,5-b]pyridine]	0.45 ± 0.03	4.63	3.86 %ID/g	3 ± 0.04					fp relative to benzodioxole counterpart [4]: ~2 times; reduction of log D versus benzodioxole counterpart [6]: approximately 3.2%
COc1ccc(-c2csc(-c3nc(-c4ccc5c(c4)OCO5)cs3)n2)cc1[18F] [[^18F]d2, 4-(benzo[d][1,3]dioxol-5-yl)-4′-(3-[^18F]fluoro-4-methoxyphenyl)-2,2′-bithiazole]	0.25 ± 0.01	1.58	1.93 %ID/g	3.1 ± 0.09					
[18F]c1ccc(-c2csc(-c3nc(-c4cnc5c(c4)OCO5)cs3)n2)cn1 [[^18F]d8, 6-(4′-(6-[^18F]fluoropyridin-3-yl)-[2,2′-bithiazol]-4-yl)-[1,3]dioxolo[4,5-b]pyridine]	0.85 ± 0.02	5.13	~1 %ID/g and 1.07 %ID/g	2.6 ± 0.09					fp relative to benzodioxole counterpart [4]: about 6 times; reduction in brain concentration at 5 min p.i. versus [18F]d6 ([5]; healthy mice, 5 min p.i.): 11.4%; brain uptake in mice ([5]; mice, time not stated): > 4 % ID/g; reduction of log D versus benzodioxole counterpart [6]: ~7.1%; brain radiometabolites ([7]; healthy mice): no brain radiometabolites; parent tracer in brain content ([7]; mice, brain homogenate): > 99%; parent tracer remaining in the plasma (in vivo stability) ([7]; mice, plasma): > 60%; brain uptake at 120 min p.i. [8]: < 1 %ID/g and 0.58 %ID/g
[18F]c1ccc(-c2csc(-c3nc(-c4ccc5c(c4)OCO5)cs3)n2)cn1 [[^18F]d6, 4-(benzo [d][1,3]dioxol-5-yl)-4′-(6-[^18F]fluoropyridin-3-yl)-2,2′-bithiazole]	0.14 ± 0.02	5.79	1.75 %ID/g	2.8 ± 0.09					brain uptake at 120 min p.i. [8]: 1.04 %ID/g
Fc1ccc(-c2csc(-c3nc(-c4ccc5c(c4)OCO5)cs3)n2)cn1 [d6, 4-(benzo[d][1,3]dioxol-5-yl)-4'-(6-fluoropyridin-3-yl)-2,2'-bithiazole]					237	966	> 200	1.21	
COc1ccc(-c2csc(-c3nc(-c4cnc5c(c4)OCO5)cs3)n2)cc1F [d4, 6-(4'-(3-fluoro-4-methoxyphenyl)-[2,2'-bithiazol]-4-yl)-[1,3]dioxolo[4,5-b]pyridine]					275	> 1000	> 200	0.66	
Fc1ccc(-c2csc(-c3nc(-c4cnc5c(c4)OCO5)cs3)n2)cn1 [d8, 6-(4'-(6-fluoropyridin-3-yl)-[2,2'-bithiazol]-4-yl)-[1,3]dioxolo[4,5-b]pyridine]					386	> 1000	> 200	0.1	
COc1ccc(-c2csc(-c3nc(-c4ccc5c(c4)OCO5)cs3)n2)cc1F [d2, 4-(benzo[d][1,3]dioxol-5-yl)-4'-(3-fluoro-4-methoxyphenyl)-2,2'-bithiazole]					242	> 1000	> 200	1.22	selectivity over Aβ [3]: about 200 fold; selectivity over tau [3]: ~1,000 fold
